Experimental data published in patent publication US20080051464A1, “Protein phosphatase inhibitors” (The Cleveland Clinic Foundation, priority 2006, published 2008).

What was measured:
[1] = test system: pZap70, pSlp76 and pLAT in Jurkat cells; assay: induction of pZap70, pSlp76 and pLAT in Jurkat cells (Western blotting); format: cell-based, human
Procedure: (§1) Jurkat cells in culture medium (3×10^6 cells/ml, 1 ml/tube) were treated with agents for designated times at room temperature. After brief centrifuging in a microfuge (4,000 rpm, 2 min), the cell pellet was lysed on ice for 30 min in 100 μl of cold lysis buffer (1% NP40, 50 mM Tris, pH 7.4, 150 mM NaCl, 20 mM NaF, 0.2 mM Na3VO4 and 1 mM Na3MO4) containing a cocktail of proteinase inhibitors (Sigma, 1 tablet/10 ml). The lysates were cleared by centrifuging (14,000 rpm, 10 min) in a microfuge at 4° C. to remove insoluble parts, mixed with equal volume of 2×SDS-PAGE sample buffer, boiled for 5 min and analyzed (˜3×10^5 cells/well) by SDS-PAGE/Western blotting. Relative intensities of phosphotyrosine bands were quantified through densitometry analysis.
Jurkat cells in culture medium (3×10^6 cells/ml, 1 ml/tube) were treated with agents for designated times at room temperature. […] The lysates were cleared by centrifuging (14,000 rpm, 10 min) in a microfuge at 4° C. to remove insoluble parts, mixed with equal volume of 2×SDS-PAGE sample buffer, boiled for 5 min and analyzed (˜3×10^5 cells/well) by SDS-PAGE/Western blotting as described previously (17, 18). Relative intensities of phosphotyrosine bands were quantified through densitometry analysis.

[2] = test system: pLck-pY505 (dephosphorylated by PTPase CD45) in Jurkat cells; assay: pLck-pY505 in Jurkat cells (Western blotting); format: cell-based, human; conditions: L5-treated Jurkat cells
Procedure: as §1

[3] = toxicity of L5 in mice; format: in vivo, mouse; conditions: 10 mg/kg, daily, s.c., two weeks
Procedure: FIG. 3 illustrates differential toxicity of L5 and L6. Jurkat cells were cultured in the absence or presence of lead compound #5 (L5) (A) or #6 (L6) (B) for 6 days prior to quantification of cell growth by MTT assays. Data represent mean ±SD of triplicate samples. Balb/c mice were treated with L5 (˜10 mg/kg body weight, s.c., daily, M-F/wk) for two weeks to assess its toxicity in vivo (C).
Spleens were harvested one hour post-treatment on day 4 and processed into splenocytes, which were used for assessing pLck levels by SDS-PAGE/Western blotting and for quantification of IFNγ+ cells by ELISPOT assays. Mice were also treated with L5 (˜10 mg/kg body weight, daily, s.c., n=2) to evaluate the toxicity of the compounds in vivo.

[4] = test system: IFNγ+ cells in mouse splenocytes; assay: induction of IFNγ+ cells in mouse splenocytes in vitro (ELISPOT); format: cell-based; conditions: for increase of IFNγ+ cells in splenocytes: 16 hrs (FIG. 5A)
Procedure: The splenocytes were cultured in RPMI 1640 medium supplemented with 10% FCS in the absence or presence of designated agents for 16 hrs in flat-bottom 96-well plates coated with a monoclonal antibody specific for mouse IFNγ (mouse IFNγ ELISPOT Kit, R & D System). The plates were then processed for in situ detection of IFNγ+ cells by ELISA following the manufacturer's procedure. Scanning and counting of IFNγ+ cells in the plates were accomplished using an automatic ELISPOT reader with Immunospot2 software (Cellular Technology Ltd). Mouse splenocytes were also untreated or treated with agents for 16 hrs in culture dishes and then stained with appropriate isotype control antibodies or FICT-labeled anti-CD3 monoclonal antibody (BD) plus PE-labeled monoclonal antibody (BD) for intracellular IFNγ following established procedures. The stained samples were washed 3 times, re-suspended in 200 μl of 1% para-formaldehyde solution and analyzed (20,000 cells/sample) using a BD FACS Caliburs cytometer and WinList software.
The splenocytes were cultured in RPMI 1640 medium supplemented with 10% FCS in the absence or presence of designated agents for 16 hrs in flat-bottom 96-well plates coated with a monoclonal antibody specific for mouse IFNγ (mouse IFNγ ELISPOT Kit, R & D System). The plates were then processed for in situ detection of IFNγ+ cells by ELISA following the manufacturer's procedure. Scanning and counting of IFNγ+ cells in the plates were accomplished using an automatic ELISPOT reader with Immunospot2 software (Cellular Technology Ltd).

[5] = test system: IFNγ+ cells in human peripheral blood; assay: induction of IFNγ+ cells in human peripheral blood in vitro (ELISPOT); format: cell-based
Procedure: For induction of human primary IFNγ+ cells, heparinized peripheral blood samples were obtained by vein-puncture from healthy volunteers following an established protocol approved by the Institutional Review Board (IRB) of Cleveland Clinic. To mimic in vivo drug-exposure, human peripheral blood samples were directly treated with different agents without pre-separation of white blood cells from other blood components. Blood samples (0.1 ml/sample) were mixed with the agents, incubated at 37° C. for 4 hrs, diluted with 5 volumes of hypotonic solution (10 mM Tris, pH 7.4; 10 mM NaCl) to lyse RBC and centrifuged to pellet WBCs. The pellets were washed with hypotonic solution one time, re-suspended in RPMI 1640 medium (10% FCS) and used for ELISPOT assays (Human IFNγ ELISPOT Kit, R & D System) to quantify human IFNγ+ cells as outlined above.

[6] = test system: B16 melanoma tumors; assay: B16 melanoma tumor growth in C57BL/6J mice; format: in vivo
Procedure: Tumor volume (n=5) was measured during the study period and calculated using the formula for a prolate spheroid. Student's t test was used for assessing the significance of tumor volume differences among differential treatment groups. Mouse viability (daily) and body weights (weekly) were also recorded during the study period. Major internal organs of the mice were inspected visually upon their termination at the end of the experiment.
To assess anti-tumor activity, C57BL/6J mice (˜8-week old, female, Taconic Farms, Germantown, N.Y.) were inoculated (s.c.) at the flanks with B16 melanoma cells (4×10^4 cells/site). […] Tumor volume (n=5) was measured during the study period and calculated using the formula for a prolate spheroid. Student's t test was used for assessing the significance of tumor volume differences among differential treatment groups. Mouse viability (daily) and body weights (weekly) were also recorded during the study period. Major internal organs of the mice were inspected visually upon their termination at the end of the experiment.

[7] = test system: B16 melanoma cells; assay: B16 melanoma cell growth in culture (MTT assay); format: cell-based, mouse; conditions: doses up to 10 μg/ml, 5 days
From the text: L5, L6 and L6 analogs (Chembridge), mouse IFNγ ELISPOT Kit (R & D System) and antibody against pLck-pY394 or pERK1/2 (Cell Signaling) were purchased from commercial sources. Human Jurkat T cell line and murine B16 melanoma cell line (ATCC) and other cancer cell lines were maintained in […] culture medium supplemented with 10% fetal calf serum (FCS). The effects of chemical compounds on cancer cell growth in culture were quantified by MTT assays following our established procedures.

Structure (SMILES): O=C1C=CC(=O)C(c2cc(Cl)ccc2Cl)=C1 [L5]
- levels of pZap70 and pSlp76 ([1]; 0.01, 0.1, 1 or 3 μg/ml): obviously increased
- pLAT ([1]; L5-treated Jurkat cells): induced pLAT
- pLck-pY505 [2]: little effects
- viability of mice [3]: all alive
- induction of IFNγ+ cells ([4]; 0.001 μg/ml (FIG. 11)): inactive
- increase of IFNγ+ cells in splenocytes ([4]; 1 μg/ml): ~14 fold
- increase of IFNγ+ cells in splenocytes ([4]; 3 μg/ml): ~26 fold
- increase of IFNγ+ cells in splenocytes ([4]; 10 μg/ml): ~17 fold
- increase of IFNγ+ cells in splenocytes ([4]; 30 μg/ml): ~10 fold
- induction of IFNγ+ cells ([4]; 0.01 to 1 μg/ml (FIG. 11A)): effective
- minimal effective dose for IFNγ+ cell induction ([4]; FIG. 11): 10 ng/mL
- induction of IFNγ+ cells ([4]; higher doses (FIG. 16B)): induced significant IFNγ+ cells
- induction of IFNγ+ cells ([4]; low doses (0.01 to 1 μg/ml), splenocytes of the same mouse (FIG. 16B)): 3-4 fold
- effectiveness compared with SSG in inducing IFNγ+ cells ([4]; maximal induction at a comparable dose, mouse splenocytes): ~58 fold
- maximal induction of IFNγ+ cells in human peripheral blood ([5]; 8 μg/ml): 20 fold
- effectiveness compared with SSG in inducing IFNγ+ cells ([5]; maximal induction at a comparable dose, human peripheral blood): ~20 fold
- survival of treated mice ([6]; 1 mg/kg daily, oral gavage): survived till the end of the study
- abnormality in behavior or gross anatomy ([6]; 3 mg/kg/day, oral): no apparent abnormality in behavior or gross anatomy
- survival of treated mice ([6]; 3 mg/kg/day, oral): survived until the end of the study
- growth inhibition of B16 tumors vs control ([6]; 3 mg/kg/day, oral, M-F/week, end of study): ~83%
- direct toxicity against B16 cells [7]: little direct toxicity
